The results in this text go back to patent US9422359B2, “GPCR fusion protein containing an N-terminal autonomously folding stable domain, and crystals of the same” (The Board of Trustees of the Leland Stanford Junior …, priority 2011, dated 2016).

One assay concerns the target T1, R:G complex (Bos taurus, UniProt P04896).
T1 construct: HA signal peptide (N); made in house; host or cells: receptor: Sf9 insect cells (baculovirus); Gs subunits: HighFive insect cells
Put plainly: Analytical gel filtration, stability of the R:G complex. On the procedure:
[…]. Nature 2011 469, 175-180). To maintain the high-affinity nucleotide-free state of the complex, apyrase (25 mU/ml, NEB) was added after 90 min to hydrolyze residual GDP released from G ? supon binding to the receptor. GMP resulting from hydrolysis of GDP by apyrase has very poor affinity for the G protein in the complex.
At this stage the mixture contains the R:G complex, non-functional Gs, and an excess of β2AR. […] To prevent cysteine bridge-mediated aggregation of R:G complexes, 100 μM TCEP was added to the eluted protein prior to concentrating it with a 50 kDa MWCO Millipore concentrator. Of note, it was discovered later that crystal growth improved at even higher TCEP concentrations (above 1 mM) compared to 100 μM TCEP, and that the integrity of the R:G complex in MNG-3 was stable to 10 mM TCEP as measured by gel filtration analysis (FIG. 21C). In contrast, DDM-solubilized β2AR loses its ability to bind the high-affinity antagonist ^3H-dihydroalprenolol in 10 mM TCEP (data not shown), probably due to disruption of extracellular disulfide bonds. Iodoacetamide could not be used to block reactive cysteines on Gs alpha and beta subunits as it caused dissociation of the R:G complex (figure S9b). […] Peak fractions were pooled (FIG. 17b) and concentrated to approximately 90 mg ml^−1 with a 100 kDa MWCO Viva-spin concentrator and analyzed by SDS-PAGE/Coomassie brilliant blue staining (FIG. 17a) and gel filtration (FIG. 17c). To confirm a pure, homogeneous, and dephosphorylated preparation, the R:G complex was routinely analyzed by ion exchange chromatography (FIG. 17d).
In general terms: SEC sorts molecules by how far they enter the pores of the column.

Another assay has as its target T2, T4L-β2AR (Homo sapiens, UniProt P07550, M96T/M98T/N187E).
T2 construct: HA signal peptide (N, cleaved yes); made in house; host or cells: Sf9 insect cells, recombinant baculovirus
The experiment in a line: Ligand binding affinity of T4L-β2AR with M96T, M98T mutations. An excerpt: To increase the probability of obtaining crystals of the R:G complex two strategies were used to increase the polar surface area on the extracellular side of the receptor. […] The PNGaseF-inaccessible glycosylation site of the β2AR at N187 was mutated to Glu.

T1 sequence (P04896 1-380 isoform P04896-2, one chain of several): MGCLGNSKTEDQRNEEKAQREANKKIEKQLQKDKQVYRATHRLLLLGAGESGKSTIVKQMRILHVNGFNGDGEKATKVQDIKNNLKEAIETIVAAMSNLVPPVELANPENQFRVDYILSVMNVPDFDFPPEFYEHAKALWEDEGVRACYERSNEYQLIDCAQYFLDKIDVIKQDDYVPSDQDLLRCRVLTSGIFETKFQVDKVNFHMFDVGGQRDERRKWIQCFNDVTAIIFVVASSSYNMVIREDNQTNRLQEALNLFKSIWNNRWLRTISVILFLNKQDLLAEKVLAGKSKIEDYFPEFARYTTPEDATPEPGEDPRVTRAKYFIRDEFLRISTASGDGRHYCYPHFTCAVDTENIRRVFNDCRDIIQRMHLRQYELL

`Nc1nc2c(ncn2[C@@H]2O[C@H](COP(=O)(O)OP(=O)(O)O)[C@@H](O)[C@H]2O)c(=O)[nH]1` [GDP]: on R:G complex (nucleotides at 0.1 mM), the “effect on the R:G complex” value was “cause dissociation of the R:G complex”.
Same read-out and setting: to `Nc1nc2c(ncn2[C@@H]2O[C@H](COP(=O)(O)OP(=O)(O)OP(O)(O)=S)[C@@H](O)[C@H]2O)c(=O)[nH]1` [GTPγS] belongs “cause dissociation of the R:G complex”.
Consider `CCCc1ccccc1OCC(O)CNC(C)C` (centres unmarked) [[3H]-Dihydroalprenolol, dihydroalprenolol], for which the “effect of the threonine mutations (M96T, M98T) on ligand binding affinity” value at T4L-β2AR is “did not affect ligand binding affinity”.
Turning to `NC(=O)CI` [iodoacetamide], the “effect on the R:G complex” value on R:G complex (5 mM for 20 hrs at 20° C.) is listed as “led to dissociation of the complex”.
In the case of `O=P(O)(O)OP(=O)(O)O` [pyrophosphate], the “effect on the R:G complex” value at R:G complex (phosphates used at 5 mM) is on record as “do not cause disruption of the complex”.
